Results published in patent publication US8710068B2, “Method of treating cancer using a survivin inhibitor” (The Trustees Of The University Of Pennsylvania, priority 2009, dated 2014).

Legend:
[1] = test system: AsPC1 tumor xenograft; assay: AsPC1 mouse xenograft tumor growth; type: in vivo, athymic mice
Experimental: FIG. 13 illustrates S12 inhibition of tumor growth in vivo. (A) AsPC1 cells were injected subcutaneously into the mid-dorsum of athymic mice. S12 was administered 10 days after the injection at the concentration of 5 mg/kg (blue triangles; middle line on the graph, n=4) or 15 mg/kg (red triangles; lower line on the graph; n=3). The control group was treated with PBS containing DMSO only (black square; upper line on the graph). The results represent the mean tumor volume+/− standard error (P<0.05). (B) In a second set of studies S12 was administered at the concentration of 15 mg/kg or 50 mg/kg (n=3). In both studies the control group was treated with PBS containing DMSO only. The results represented the mean tumor volume+/− standard error.
The effect of S12 on tumor growth was examined using a mouse xenograft model. The human pancreatic cell line AsPC1 was injected subcutaneously into athymic mice and formed palpable tumors within 10 days. S12 was then administered at the concentration of 5 mg/kg or 15 mg/kg three times per week until the end point of the experiment. The size of the tumors was monitored for up to 48 days after the initial grafting.

[2] = test system: HeLa cells; assay: Immunofluorescence microscopy of mitosis and spindle formation, HeLa; type: cell-based, human
Experimental: FIG. 8 illustrates the effect of S2 on mitotic spindle formation. HeLa cells were treated with S2 or DMSO for 15 hours. The cells were then fixed and subjected to immunostaining using the anti-β-Tubulin (green) and the anti-Survivin (red). Representative fluorescent microscopy images are shown. Note that short microtubule bundles form in S2-treated cells.
FIG. 9 illustrates the effect of S12 on mitosis. (A) HeLa cells were treated with S12, S2 or DMSO for 15 hours. The cells were then fixed and subjected to immunostaining using antibodies specific for Aurora B (green) and Survivin (red). DNA was stained with DAPI. Chromosome misalignment is indicated with the arrowheads. (B) Percentage of S12-treated cells in mitosis, in metaphase, in anaphase/telophase, or with misaligned chromosomes. (C) Percentage of S2-treated cells in mitosis, in metaphase, in anaphase/telophase, or with misaligned chromosomes. (D) HeLa cells were treated with S12 (10 μg/ml) or DMSO (control) for 15 hours. Cells were examined by PI staining of DNA content by FACS analysis.
FIG. 17 illustrates (A) FACS analysis of DNA content of HeLa cells treated with SBDO3. Note the accumulation of cells at the G2/M stage. Cell death was also observed (sub-G1 population); (B) Immuno-fluorescence microscopy analysis of cell treated with SBDO3. Note that the microtubule bundles of the mitotic spindle are disorganized. The chromosomes are not aligned properly and cells cannot go through metaphase.
FIG. 19 illustrates immunofluorescence studies of Survivin localization. (A) Untreated HeLa cells were subjected to immunostaining using a monoclonal anti-beta-Tubulin antibody (green) or a polyclonal anti-Survivin antibody (red). Images of cells at various stages of mitosis are shown. (B) HeLa cells were treated with S2 for 6 hours. Cells were immunostained with anti-beta-Tubulin antibody (green) or a polyclonal anti-survivin antibody (red). Note that localization of Survivin to the midbody was not affected by S2.
The effect of S2 and its analogs on the progression of cell cycle was examined by immunofluorescence microscopy. HeLa cells were plated on coverglass and treated with the Survivin-targeting compound S2 (10 μg/ml) or with the solvent DMSO alone for 15 hours. Cells were stained with the anti-β-Tubulin antibody (green) and anti-Survivin antibody (red). S2 can block cell division at the early stage of mitosis (FIG. 8). […] The microtubules in this case are very short, with one end attached to the centrosome and the other end to the kinetochore of the chromosomes (FIG. 8).
We extended the immunofluorescence studies to define the cell stage in the cells that were arrested by S2 or its analogs. Cells were also stained with anti-Aurora B antibody or anti-Survivin antibody in order to determine whether the localization of Survivin or Aurora B proteins are changed by these small molecules. Upon S2 or S12 treatment, we observed that cells accumulate in a stage with condensed chromosomes but without proper alignment of chromosomes on the mitotic plate (FIG. 9). The percentage of cells that progress to metaphase or beyond was reduced by S2 or S12 treatment (FIG. 9). […] Moreover, localization of Survivin to the midbody was also not affected.
Effects of the Survivin-targeting compound S12 on cell cycle progression was examined by immunofluorescence microscopy. HeLa cells were plated on coverglass and treated with S12 (40 μM) or with the solvent DMSO alone for 15 hours. […]

[3] = test system: HeLa cells; assay: Trypan blue exclusion cell death, synchronized vs unsynchronized HeLa; type: cell-based, human
Experimental: FIG. 12 illustrates S12 induction of caspase activation in HeLa cells. (A) HeLa cells were incubated with DMSO (control), S12, Taxol, nocodazole (Noco), or etoposide (Etop) for 12 hours. The cell lysates were analyzed by Western blot using the anti-PARP antibody (top panel), the anti-α-tubulin antibody (middle panel), or the anti-Survivin antibody (bottom panel). (B) S12 causes cell death in a cell cycle dependent manner. HeLa cells, either unsynchronized or synchronized by thymidine treatment were incubated either with S12 or DMSO. Cell death was quantitated by trypan blue exclusion assay.
We wanted to determine if the Survivin-targeting compounds induce cell death during mitosis but could not affect the phenotype or influence in other stages of the cell cycle. To this end, we blocked HeLa cells in the S phase by thymidine treatment and examined whether the cells were susceptible to cell death induced by S12. […] Thus, the current data support the notion that S12 induced death of cells is a consequence of mitotic arrest rather than general cytotoxicity and indicate a unique cell cycle specific functionality of Survivin in this process.

[4] = biological target: T1, Sur-V89Y (Homo sapiens, UniProt O15392, V89Y); assay: ITC binding to Survivin mutant V89Y; details: in words
T1 construct: made in house; host or cells: bacteria
Experimental: FIG. 5 illustrates an analysis of S12-Survivin binding with isothermal titration calorimetry (ITC). Single-site point mutagenesis was performed to create the Survivin mutants F86A and V89Y. The native and the mutant proteins were produced and purified from bacteria.
In order to examine the specificity of the binding, we generated point mutations on the Survivin protein at the site presumably targeted by S12. The two mutations were substitutions of phenylalanine 86 with alanine (F86A) and valine 89 with tyrosine (V89Y). These two altered sites are also adjacent to the interface involved in dimerization of the Survivin protein. Based on structural analyses, we predict that alterations of either of these two amino acid residues may abolish the binding of S12 without affecting the overall structure of the Survivin protein.

T1 sequence (O15392 whole entry V89Y): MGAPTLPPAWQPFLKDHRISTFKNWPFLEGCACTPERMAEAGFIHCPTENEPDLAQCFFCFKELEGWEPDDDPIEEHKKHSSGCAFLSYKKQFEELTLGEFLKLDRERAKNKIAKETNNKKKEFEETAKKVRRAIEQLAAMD

With `O=C(CC1(O)C(=O)Nc2ccc(Br)cc21)c1ccc2c(c1)OCO2` (stereo not shown) [S12] the tumor volume ([1]; 5 mg/kg or 15 mg/kg three times per week, up to 48 days) was “significantly lowered the tumor volume in a dose-dependent manner”, the tumor regression ([1]; dose raised to 50 mg/kg) was “enhancement of tumor regression” and the “percentage of cells that progress to metaphase or beyond” value ([2]; 15 hours) was “reduced”. The “formation of the mitotic spindle” value ([2]; 15 hours, immunofluorescence) was “can cause defects in formation of the mitotic spindle”, the “localization of Survivin or Aurora B to the kinetochore” value ([2]; immunofluorescence) was “did not alter” and the “localization of Survivin to the midbody” value ([2]; immunofluorescence) was “not affected”. For the same compound, the “mitotic stage at which cells accumulate” value ([2]; immunofluorescence) was “arrested by S12 in an early stage of mitosis”, the “cell death of S phase-arrested cells” value ([3]; HeLa blocked in S phase by thymidine) was “insensitive” and the “cell death of unsynchronized cells” value ([3]; unsynchronized HeLa) was “underwent apoptosis”. For the same compound, the “binding to mutant Sur-V89Y” value [4] was “did not bind”.
